Results taken from article PMC7076382 (Pharmaceutics, 2020).
Like-named read-outs stand apart in the source and are kept apart here. Blank lines part the entries; values can stand above or below the molecule they belong to. Non-standard residues stand in square brackets, D forms with d. Residues, ends and D or L forms follow the SMILES beside them. dTrp(2-Me) = Cc1[nH]c2ccccc2c1C[C@@H](N)C(=O)O

Key:
[1] = dog, in vivo, po, 600 mg; cited from earlier work
[2] = system: rat intestine; conditions: cited from earlier work; for effect on permeation of small model drugs: caprate at 2 and 5 mg/mL
[3] = system: colonic; conditions: cited from earlier work
[4] = system: Caco-2 model; parameters: method as in PMID 11578108; conditions: cited from earlier work
[5] = system: intestinal lumen; parameters: method as in PMID 29758344; conditions: caprate dose of 11.4 mg/mL, formulation pH 6.5 and 7.4; cited from earlier work
[6] = system: jejunal segment; assay: Single-pass intestinal perfusion (SPIP), jejunal lumen-to-blood effective permeability (Peff); conditions: any investigated luminal concentration: SDS 5 mg/mL; caprate 5, 10, 20 mg/mL
Protocol: (§1) In short, male Wistar Han rats (strain 273) from Charles River Co. (Cologne, Germany), weight 270–363 g, were used. On the study day, the rats were anesthetized using an intraperitoneal injection of a 5% w/v thiobutabarbital solution (180 mg/kg). Body temperature was maintained at 37.5 ± 0.5 °C. To validate the condition of the animal, the systemic arterial blood pressure was continuously recorded by connecting the arterial catheter to a transducer operating a PowerLab system (AD Instruments, Hastings, UK).
(§2) At the SPIP experiment, the abdomen was opened along the midline and a jejunal segment of 10–15 cm was cannulated, covered with polyethylene wrap, and placed outside the abdomen. The bile duct was cannulated to avoid pancreaticobiliary secretion into the duodenum. […] During the first 30 min following surgery, each intestinal segment was single-passed perfused with 37 °C phosphate buffered saline (6 mM, pH 6.5 or 7.4). […] The length of the intestinal segment was measured after the jejunal cannulation as was the wet tissue weight of the segment after the experiment. The perfusion rate was at all times 0.2 mL/min (peristaltic pump, Gilson Minipuls 3, Le Bel, France).
(§3) Each perfusate experiment was divided into two parts. […] The 10 and 20 mg/mL concentrations (suspensions) were used to evaluate if concentrations above saturation had any impact on membrane permeability.
(§4) The five experiments were designed such that each rat was its own control. The experimental period started with a rapid filling (<30 s) of the whole segment with the perfusate (about 1.5 mL for a 10 cm segment). The intestinal segment and perfusates were kept at 37 °C, and all outgoing perfusate was collected and weighed at 15-min intervals.
(§5) In short, an input rate was acquired by deconvolution of the plasma concentration–time profiles following the intestinal perfusion. […] From the input rate, an absorption rate was then calculated by compensating for first-pass extraction (Ffirstpass) of each compound in the rat intestine and liver. […] Plasma CL values were derived from the two-compartment analysis of the intravenous plasma data and an assumed rat liver blood flow of 47 mL/min/kg [24]. The Peff (cm/s) was then calculated by relating the absorption rate to the intestinal luminal area using Equation (2):(2) Peff=absorption rate/A × C where A is the area of the exposed intestinal segment described as a smooth cylinder with a radius of 0.2 cm and C is the concentration entering the luminal segment. Peff was evaluated from 0 to 135 min, and the mean Peff value of the two perfusion periods (60-min control and 75-min test) was regarded as representative for each individual rat.
(§6) Peff and CLCr-EDTA values, are expressed as the mean ± standard deviation (SD) or standard error of the mean (SEM). […]

[7] = system: jejunal segment; assay: Blood-to-lumen jejunal 51Cr-EDTA clearance (CLCr-EDTA) during SPIP
Protocol: as §2
Luminal perfusates and blood plasma at 0 and 135 min were analyzed for ^51Cr activity (cpm) in a gamma counter (1282 Compugamma CS, Pharmacia AB, Uppsala, Sweden). A linear regression analysis of the plasma samples was made to obtain a corresponding plasma value for each perfusate sample. […] CLCr-EDTA was determined during the last 45 min for the control solution and during the last 60 min for the test solutions (the first 15 min in each period was for equilibration). […]
as §6

[8] = rat, in vivo, iv
Protocol: (§7) Blood samples of <0.3 mL were collected from the femoral artery for a maximum volume of 4 mL during each experiment. All sampled blood volumes were replaced by an equivalent volume of saline (0.9% NaCl) containing 70 mg/mL bovine serum albumin. For the intravenous administration, blood was sampled over 6 h (at 5, 10, 20, 40, 60, 90 min and at 2, 4, and 6 h). […] The blood samples were put on ice and centrifuged (5000× g, 3 min at 4 °C) within 10 min of sampling; 100 μL of the plasma was transferred to 0.5 mL micro tubes and stored at −80 °C until analysis.
(§8) Plasma CL values were derived from the two-compartment analysis of the intravenous plasma data and an assumed rat liver blood flow of 47 mL/min/kg [24].
(§9) The plate was vortex-mixed for 10 min (pulse 1200) after which it was centrifuged for 10 min at 2862× g. The supernatants were then injected into the UHPLC-MS/MS system. The column used was an Acquity UPLC Peptide BEH C18 (50 × 2.1 mm length × inner diameter, 1.7 µm particle size) from Waters Corp. (Milford, MA, USA). The mobile phase consisted of (A) 0.1% formic acid in water and (B) 0.1% formic acid in acetonitrile. Gradient elution was initially 2.0% B for 0.50 min, with a linear increase to 90% B for 1.5 min, held constant at 90% B for 0.30 min, then back to 2.0% B in 0.30 min, and constant again at 2.0% B for 0.40 min. The total run time was 3.0 min.

[9] = cited from earlier work; for Log D6.5: pH 6.5; for Log D7.4: pH 7.4
[10] = in vivo; conditions: rat, iv
Protocol: as §7, §8, §9

[11] = Single-pass intestinal perfusion (SPIP), jejunal lumen-to-blood effective permeability (Peff); conditions: male, Wistar Han, rat, other: single-pass jejunal perfusion
Protocol: as §1, §2, §3, §4, §5, §6

[12] = system: serine protease; parameters: method as in PMID 9643439, PMID 11578108; conditions: rat, pefabloc SC at 0.3 mg/mL; cited from earlier work
[13] = rat
Protocol: as §1, §2, §3, §4, §5, §6

[14] = rat, in vivo, iv; remark: listed apart in the source
Protocol: as §7, §8, §9

[15] = system: jejunal segment; conditions: rat
Protocol: as §1, §2, §3, §4, §5, §6

[16] = system: rat liver; conditions: in vivo; cited from earlier work
[17] = n-octanol-water, source not given

Molecule: semaglutide
bioavailability [1]: 0.29%

Molecule: CCCCCCCCCC(=O)[O-].[Na+] [caprate, sodium caprate]
absorption-enhancing effect on small low permeability model compounds ([2]; caprate at 2 mg/mL, rat jejunal SPIP): did not observe any absorption-enhancing effect | effective caprate concentrations ([2]; rat SPIP model): 4 to 20 mg/mL | effect on permeation of small model drugs ([2]; rat SPIP, SDS at 5 mg/mL): does not | effect of caprate when pH was increased from 6.5 to 7.4 ([3]; 4 mg/mL caprate, rectal perfusion study): increased | human colonic Peff [3]: 1.4 ± 0.4 × 10^−4 cm/s | increase of apparent permeability of hexarelin [4]: over 200 fold | absorption-enhancing effect [5]: no effect

Molecule: CCCCCCCCCCCCOS(=O)(=O)[O-].[Na+] [SDS, sodium dodecyl sulfate]
pH dependence of the effect on the permeability of enalaprilat and CLCr-EDTA ([2]; SDS at 5 mg/mL, pH 6.5 vs. 7.4): unaffected by pH | increase of absorption of atenolol ([2]; SDS at 5 mg/mL, rat SPIP): 10 fold | increase of absorption of enalaprilat ([2]; SDS at 5 mg/mL, rat SPIP): 40 fold | increase of absorption of ketoprofen ([2]; SDS at 5 mg/mL, rat SPIP): not at all | effect on lumen-to-blood transport of four low permeation model compounds and on CLCr-EDTA ([2]; SPIP model, acyclovir, atenolol, enalaprilat, phenol red): increase the lumen-to-blood transport | effect on permeation of small model drugs ([2]; rat SPIP, SDS at 5 mg/mL): increases permeation in both absorptive and secretory directions | effect on hexarelin absorption (Peff ratio of hexarelin) [6]: Neither SDS nor caprate at any of the investigated luminal concentrations enhanced absorption | CLCr-EDTA ratio (test vs. control period) ([7]; permeation enhancer at 5 mg/mL, pH 7.4, solution): significant increase

Molecule: CC(C(=O)O)c1cccc(C(=O)c2ccccc2)c1 (centres unmarked) [ketoprofen]
basal permeability ([2]; rat SPIP): 160 ×10⁻⁶ cm/s

Molecule: O=C([O-])CN(CCN(CC(=O)[O-])CC(=O)[O-])CC(=O)[O-].[51Cr+3] [^51Cr-EDTA, ^51Chromium-labeled ethylenediaminetetraacetate]
CLCr-EDTA (blood-to-lumen clearance) ([7]; control solution, mean ± SD, n = 24): 0.092 ± 0.039 mL/min/100 g

C1 (intercept of first term) [8]: 428.6 (449.1/408.0) nM | C2 (intercept of second term) [8]: 87.7 (105.5/70.0) nM | λ1 (slope of first term) [8]: 3.9 (4.6/3.3) h^−1 | λ2 (slope of second term) [8]: 0.38 (0.45/0.31) h^−1 | clearance [10]: 3 mL/min | Papp at 100 µM [11]: 1.3 ± 0.9 ×10⁻⁶ cm/s
Molecule: C[C@H](N[C@@H](CCc1ccccc1)C(=O)O)C(=O)N1CCC[C@H]1C(=O)O [enalaprilat]
basal permeability ([2]; rat SPIP): 1.1 ×10⁻⁶ cm/s | Log D6.5 [9, 17]: −1.0 | Log D7.4 [9, 17]: −1.0

Molecule: Cl.NCCc1ccc(S(=O)(=O)F)cc1 [pefabloc SC]
inhibition of intestinal degradation of hexarelin [12]: completely inhibits

Papp [13]: 0.19 ± 0.14 ×10⁻⁶ cm/s | C1 (intercept of first term) [8]: 355.2 (416.9/293.5) nM | C2 (intercept of second term) [8]: 133.7 (149.1/118.3) nM | λ1 (slope of first term) [8]: 13.7 (17.5/10.0) h^−1 | λ2 (slope of second term) [8]: 2.08 (2.26/1.91) h^−1 | clearance [14]: 10.3 mL/min | permeability at pH 6.5 compared to pH 7.4 [15]: lower at pH 6.5 compared to pH 7.4
Molecule: Cc1[nH]c2ccccc2c1C[C@@H](NC(=O)[C@@H](N)Cc1cnc[nH]1)C(=O)N[C@@H](C)C(=O)N[C@@H](Cc1c[nH]c2ccccc12)C(=O)N[C@H](Cc1ccccc1)C(=O)N[C@@H](CCCCN)C(N)=O [hexarelin] (H-H[dTrp(2-Me)]AW[dF]K-NH2)
Ffirstpass (first-pass extraction) [16]: 0.63 | Log D6.5 [9]: −3.40 | Log D7.4 [9]: −2.26
